# Patent US20220087990A1, “APPLICATION OF RIFAMYCIN-QUINOLIZIDONE CONJUGATE MOLECULE AND PHARMACEUTICALLY ACCEPTABLE SALT THEREOF” (priority 2019, published 2022)
# Like-named read-outs stand apart in the source and are kept apart here.
# What was measured:
# Type in all cases: in vivo, Staphylococcus aureus; Balb/c mice
# [1] = system: S. aureus CB1406, CB1823, CB1840 and CB1857; settings: rebound dosing regimen, mean over strains
# Protocol: (§1) Test Drug: rifamycin-quinolizidone conjugate molecule I was provided by TenNor Therapeutics, Ltd., and was stored at −20° C. Other test compounds and reagents are commercially available. […] For remaining test agents, aqueous vehicles of sterile water, 5% sodium bicarbonate or 0.9% normal saline were added to the compound shown in formula I. The rifamycin-quinolizidone conjugate molecule formulation shown in formula I was administered at 30 mg/kg.
# (§2) Bacteria: The bacteria used were biofilm forming Staphylococcus aureus strains. These were a wild-type parent biofilm strain CB1406 and it's isogenic fluoroquinoline-resistant derivatives CB1823 (parC^S80F), CB1840 (norA^up) and CB1857 (parC^S80F30 norA^up). Minimal inhibit concentrations (MICs) were determined by broth microdilution assays recommended by CLSI.
# (§3) Test animals: female 5-6 week old Balb/c mice were used in this embodiment. The mice had free access to food and water during the course of this test and animal procedures were compliant with UNTHSC Institutional Animal Care and Use Committee (IACUC) guidelines.
# (§4) In vitro preparation of colonized implants: Teflon venous catheters (14-Guage AbboCath-T #271-1000 or Braun Introcan #425 2594) were cut into 1 cm segments, sterilized by soaking in 70% ethanol for 15 minutes, dried under UV light for 20 minutes followed by aseptic placement in sterile 1.5 mL polypropylene tubes warmed to 37° C. Inocula were prepared by growing overnight broth cultures, which were diluted in 1:10 in tryptic soy broth plus 0.25% glucose (TSBG) and incubated with 250 rpm at 37° C. for 1 hour. Cultures were diluted to 1.0E+0^6 CFU/mL in 37° C. TSBG, 1 mL was added to each catheter tube, incubated at 37° C. without shaking for an additional 2.5 hours, and then cooled to 18° C. to slow growth until implant surgeries were completed.
# (§5) Formation and treatments of subcutaneous implant infections: the mice were anesthetized with isoflurane vapors (4 L/min). Each flank was shaved, sterilized with ethanol/betadine and two 3 mm incisions made. Subcutaneous pockets were excavated, then catheter segments pre-colonized with adherent bacteria inserted into the pockets closed with surgical staples. The mice were returned to their cages and regularly monitored for adverse reactions. Treatments were initiated one week post surgery (bacterial colonization and biofilm formation) twice daily by intraperitoneal injections (IP) for 7 days, 7 days treatment plus a 7 days rebound period with no treatment and 7 days treatment plus 7 days rebound+7 days re-treatment with 5 mice (total 10 implants) per treatment or sampling group. Implant-associated bacteria were monitored by sampling colonized catheter segments during the course of implant surgeries and at regular intervals for up to 28 days post infection.
# (§6) Sampling of infected implants: infected mice were euthanized by CO2 inhalation, then flanks were sterilized with 70% ethanol, and the infected catheter segments were excised into 1 mL of phosphate buffered saline pH 7.2 (1×PBS). Bacteria that adhered to the internal surfaces of explanted catheter segments were mechanically disrupted (aseptically) by repeated draws/dispenses of 200 μL 1×PBS from a micropipette tip inserted into catheter lumens, followed by 5 min vortexing at high speed. Explanted samples were then snap frozen in dry ice/ethanol and stored at −80° C. until CFU counts were determined.
# (§7) CFU count determination: the catheters were rapidly thawed in a 37° C. water bath, and vortexed for 2 minutes, serially diluted and spotted (8 μL) on agar plates. Viable cell counts for efficacy were determined by plating on drug free Charcoal or MHII agar plates. […] The detection limit for all CFU determinations was less than or equal to 2.09 log10 CFU/implant.
# (§8) The counts were multiplied by the serial dilution factor. The resulting raw values were converted to log10 CFU for calculation of means and standard deviations.
# [2] = system: Staphylococcus aureus CB1406 (wild type); settings: for mean Log10 CFU/catheter / log10 CFU reduction in bacterial counts: CB1406; for log10 CFU reduction in bacterial counts: rebound regimen
# Protocol: as §1, §2, §3, §4, §5, §6, §7, §8
# [3] = system: quinolone-resistant Staphylococcus aureus CB1823 (parC^S80F); settings: for log10 CFU reduction in bacterial counts: rebound regimen
# Protocol: as §1, §2, §3, §4, §5, §6, §7, §8
# [4] = system: quinolone-resistant Staphylococcus aureus CB1840 (norA^up); settings: for log10 CFU reduction in bacterial counts: rebound regimen
# Protocol: as §1, §2, §3, §4, §5, §6, §7, §8
# [5] = system: Staphylococcus aureus CB1857 (parC^S80F+norA^up); experiment: Mouse subcutaneous catheter implant biofilm infection model
# Protocol: as §1, §2, §3, §4, §5, §6, §7, §8
# [6] = system: quinolone-resistant Staphylococcus aureus CB1823 (parC^S80F); settings: I 30 mg/kg, rifampicin+levofloxacin 20+25 mg/kg
# [7] = system: quinolone-resistant Staphylococcus aureus CB1840 (norA^up); settings: I 30 mg/kg, rifampicin+levofloxacin 20+25 mg/kg
# [8] = following additional 7 treatment days
# [9] = rebound treatment regimen, Day 21 (7 days of rebound)
# [10] = rebound treatment regimen, Day 28 (7 days of re-treatment)
# [11] = 14-day treatment regimen, Day 7 (initiation of treatment)
# [12] = rebound treatment regimen, Day 7 (initiation of treatment)
# [13] = rebound treatment regimen, Day 14 (after 7 days of administration), IP bid, I 30 mg/kg, rifampicin+levofloxacin 20+25 mg/kg
# [14] = 14-day treatment regimen, Day 21, IP bid
smiles,measurement,setting,value
CO[C@H]1/C=C/O[C@@]2(C)Oc3c(C)c(O)c4c(O)c(c(/C=N/N5CCC(N(C)C6([C@@H]7CCN(c8c(F)cn9c(=O)c(C(=O)O)cc(C%10CC%10)c9c8C)C7)CC6)CC5)c(O)c4c3C2=O)NC(=O)/C(C)=C\C=C\[C@H](C)[C@H](O)[C@@H](C)[C@@H](O)[C@@H](C)[C@H](OC(C)=O)[C@@H]1C [I],Mean Log10 CFU reduction,[1]; following 7 days of re-treatment,4.6 Log10 CFU
same,Mean Log10 CFU reduction,[1]; following 7 days of treatment,2.4 Log10 CFU
same,Mean Log10 CFU reduction,[1]; following 7 days untreated (rebound),4.6 Log10 CFU
same,mean Log10 CFU/catheter,"[2]; 14-day treatment regimen, Day 7 (before treatment)",6.82 Log10 CFU/catheter
same,log10 CFU reduction in bacterial counts,[2]; following 7 days of treatment,2.1 log10 CFU
same,log10 CFU reduction in bacterial counts,[2]; following 7 days untreated,4.6 log10 CFU
same,log10 CFU reduction in bacterial counts,[2]; [8],4.7 log10 CFU
same,mean Log10 CFU/catheter,"[2]; rebound treatment regimen, Day 7 (before treatment)",6.82 Log10 CFU/catheter
same,mean Log10 CFU/catheter,[2]; [9],2.20 Log10 CFU/catheter
same,mean Log10 CFU/catheter,[2]; [10],2.10 Log10 CFU/catheter
same,log reduction in bacterial colony counts at the catheter site,"[2]; mouse, in vivo",4.6 log
same,mean Log10 CFU/catheter,[3]; [11],7.03 Log10 CFU/catheter
same,log10 CFU reduction in bacterial counts,[3]; following 7 days of treatment,2.4 log10 CFU
same,log10 CFU reduction in bacterial counts,[3]; following 7 days untreated,4.4 log10 CFU
same,log10 CFU reduction in bacterial counts,[3]; [8],4.5 log10 CFU
same,mean Log10 CFU/catheter,[3]; [12],7.03 Log10 CFU/catheter
same,mean Log10 CFU/catheter,[3]; [13],4.61 Log10 CFU/catheter
same,mean Log10 CFU/catheter,[3]; [9],2.61 Log10 CFU/catheter
same,mean Log10 CFU/catheter,[3]; [10],2.70 Log10 CFU/catheter
same,mean Log10 CFU/catheter,[4]; [11],7.01 Log10 CFU/catheter
same,log10 CFU reduction in bacterial counts,[4]; following 7 days of treatment,2.4 log10 CFU
same,log10 CFU reduction in bacterial counts,[4]; following 7 days untreated,4.9 log10 CFU
same,log10 CFU reduction in bacterial counts,[4]; [8],4.9 log10 CFU
same,mean Log10 CFU/catheter,[4]; [12],7.01 Log10 CFU/catheter
same,mean Log10 CFU/catheter,[4]; [13],4.61 Log10 CFU/catheter
same,mean Log10 CFU/catheter,[4]; [9],2.10 Log10 CFU/catheter
same,mean Log10 CFU/catheter,[4]; [10],2.10 Log10 CFU/catheter
same,mean Log10 CFU/catheter,[5]; [11],6.81 Log10 CFU/catheter
same,mean Log10 CFU/catheter,"[5]; 14-day treatment regimen, Day 21, IP bid, I 30 mg/kg, rifampicin+levofloxacin 20+25 mg/kg",2.30 Log10 CFU/catheter
same,log10 CFU reduction in bacterial counts at the catheter site,"[5]; 14 consecutive days bid, I 30 mg/kg, rifampicin+levofloxacin 20+25 mg/kg",4.5 log10 CFU
same,log10 CFU reduction in bacterial counts,"[5]; rebound regimen, following 7 days of treatment",2.5 log10 CFU
same,mean Log10 CFU/catheter,[5]; [12],6.81 Log10 CFU/catheter
same,mean Log10 CFU/catheter,[5]; [13],4.26 Log10 CFU/catheter
same,mean Log10 CFU/catheter,[5]; [9],2.40 Log10 CFU/catheter
same,mean Log10 CFU/catheter,[5]; [10],2.45 Log10 CFU/catheter
same,mean Log10 CFU/catheter,[6]; [14],2.70 Log10 CFU/catheter
same,log reduction in bacterial counts at the catheter site,[6]; 14 consecutive days bid,4.3 log
same,mean Log10 CFU/catheter,[7]; [14],2.10 Log10 CFU/catheter
same,log10 CFU reduction in bacterial counts at the catheter site,[7]; 14 consecutive days bid,4.9 log10 CFU
